Columns and labels:
[1] = oral glucose tolerance test (OGTT) in normal Swiss mice fasting for 17 hours, additive effect with metformin; type: in vivo; settings: compound 1 50 mg/kg per os, metformin 300 mg/kg per os
Experimental: The anti-diabetic action of the compounds in Examples 1 and 2 were determined via oral route in normal Swiss mice fasting for 17 hours. […] The animals were housed for a minimum time of one week after delivery (ordered from Charles River France) up until the day of experimentation in an animal facility at a temperature regulated at 21-22° C. and subjected to a light cycle (from 9 h to 17 h) and dark cycle (from 19 h to 7 h). They were fed a maintenance diet: water and food were provided ? ad libitum ? . The animals were treated via oral route 1 hour before oral administration of a glucose load (oral glucose tolerance test—OGTT). Glycaemia was measured at various times before and after this glucose load. This glycaemia was measured using a glucometer (Lifescan OneTouch Ultra, Lifescan, Johnson and Johnson Company) and OneTouch Ultra glycaemia test strips. In the Tables below n represents the number of mice included in the study. • 1. […] The 2 compounds were administered successively one hour before the glucose load. All the groups were composed of 5 mice (metformin alone, compound 1 alone, metformin+compound 1, control group with the carrier alone). Blood samples were taken at 0, 30, 60, 90 and 120 minutes after the glucose load.

[2] = as above; type: in vivo; settings: metformin 300 mg/kg per os; for Glycaemia, Time −60 mn / Glycaemia, Time 30 mn / Glycaemia, Time 60 mn / Glycaemia, Time 120 mn / Glycaemia, Time 0 mn / Glycaemia, Time 90 mn: OGTT; for Glycaemia, Time −60 mn: given 1 h before glucose load, time −60 min; for Glycaemia, Time 30 mn: time 30 min; for Glycaemia, Time 60 mn: time 60 min; for Glycaemia, Time 120 mn: time 120 min; for Glycaemia, Time 0 mn: time 0 min; for Glycaemia, Time 90 mn: time 90 min
[3] = test system: liver cells of rats fasting for 48 h; settings: rat liver cells; stated in words, no data shown; cited from earlier work
[4] = Table 1, compound 1 50 mg/kg per os
[5] = Table 2, compound 2 50 mg/kg per os
[6] = Table 3, compound 3 50 mg/kg per os
[7] = Table 4, compound 4 50 mg/kg per os

Which “Glycaemia, Time 0 mn” value ([1]; Table 1, OGTT, time 0 min) does the source give for `CN(C)C(=N)N=C(N)N` [Metformin, metformin] here?
Its value is 3.2 ± 0.3 mM/liter.

What about the “Glycaemia, Time 90 mn” value ([1]; Table 1, OGTT, time 90 min) of the same compound?
The value was 7.7 ± 1.0 mM/liter.

And the “drop of glycaemia area under curve after glucose load” value (“drop of glycaemia area under curve” below) ([1]; study 1)?
Its value is 44.2%.

What about the “Glycaemia, Time −60 mn” value [2, 4] of the same compound?
Its value is 3.7 ± 0.3 mM/liter.

And the “Glycaemia, Time 30 mn” value [2, 4]?
Its value is 8.6 ± 0.5 mM/liter.

What about the “Glycaemia, Time 60 mn” value [2, 4] of the same compound?
The value was 9.4 ± 0.8 mM/liter.

And the “Glycaemia, Time 120 mn” value [2, 4]?
The value was 6.2 ± 0.8 mM/liter.

And the “Glycaemia, Time −60 mn” value [2, 5]?
Its value is 3.8 ± 0.1 mM/liter.

What about the “Glycaemia, Time 0 mn” value [2, 5] of the same compound?
Its value is 3.6 ± 0.3 mM/liter.

And the “Glycaemia, Time 30 mn” value [2, 5]?
Its value is 11.2 ± 0.3 mM/liter.

What about the “Glycaemia, Time 60 mn” value [2, 5] of the same compound?
The value was 9.5 ± 0.4 mM/liter.

And the “Glycaemia, Time 90 mn” value [2, 5]?
Its value is 8.0 ± 1.3 mM/liter.

And the “Glycaemia, Time 120 mn” value [2, 5]?
The value was 8.2 ± 0.7 mM/liter.

And the “Glycaemia, Time −60 mn” value [2, 6]?
The value was 5.6 ± 0.3 mM/liter.

And the “Glycaemia, Time 0 mn” value [2, 6]?
Its value is 6.0 ± 0.3 mM/liter.

And the “Glycaemia, Time 30 mn” value [2, 6]?
Its value is 9.2 ± 0.8 mM/liter.

And the “Glycaemia, Time 60 mn” value [2, 6]?
The value was 8.2 ± 0.4 mM/liter.

What about the “Glycaemia, Time 90 mn” value [2, 6] of the same compound?
Its value is 7.7 ± 0.2 mM/liter.

And the “Glycaemia, Time 120 mn” value [2, 6]?
Its value is 9.6 ± 0.8 mM/liter.

What about the “Glycaemia, Time −60 mn” value [2, 7] of the same compound?
The value was 4.2 ± 0.3 mM/liter.

And the “Glycaemia, Time 0 mn” value [2, 7]?
The value was 3.6 ± 0.3 mM/liter.

What about the “Glycaemia, Time 30 mn” value [2, 7] of the same compound?
The value was 9.5 ± 0.6 mM/liter.

What about the “Glycaemia, Time 60 mn” value [2, 7] of the same compound?
Its value is 11.2 ± 1.8 mM/liter.

And the “Glycaemia, Time 90 mn” value [2, 7]?
Its value is 9.6 ± 0.9 mM/liter.

What about the “Glycaemia, Time 120 mn” value [2, 7] of the same compound?
The value was 8.6 ± 0.7 mM/liter.

What about the “drop of glycaemia area under curve” value ([2]; study 2, compound 2 50 mg/kg per os) of the same compound?
Its value is 38.7%.

And the “drop of glycaemia area under curve” value ([2]; study 3, compound 3 50 mg/kg per os)?
The value was 68.5%.

And the “drop of glycaemia area under curve” value ([2]; study 4, compound 4 50 mg/kg per os)?
Its value is 54.3%.

What about the “effect on the production of 13CO2 from 2-13C-lactate” value [3] of the same compound?
Its value is “reduces”.

What about the “effect on the synthesis of glucose” value [3] of the same compound?
Its value is “reduces”.
